Results published in article PMC9535710 (ACS Omega, 2022).

Experiments:
[1] = SRB cytotoxicity, SKLU-1 lung cells; format: cell-based, human; conditions: human, SKLU-1 lung tumor cells
[2] = SRB cytotoxicity, U251 glioblastoma cells; format: cell-based, human; conditions: human, U251 glioblastoma cells
[3] = SRB cytotoxicity, HCT-15 colon cells; format: cell-based, human; conditions: human, HCT-15 colon tumor cells
[4] = SRB cytotoxicity, K562 leukemia cells; format: cell-based, human; conditions: human, K562 leukemia cells
[5] = SRB cytotoxicity, MCF-7 breast cells; format: cell-based; conditions: human, MCF-7 breast tumor cells
[6] = SRB cytotoxicity, PC-3 prostate cells; format: cell-based; conditions: human, PC-3 prostate tumor cells
[7] = system: SKLU-1 (lung); test: SRB cytotoxicity, SKLU-1 lung cells; format: cell-based, human; conditions: Homo sapiens, SK-LU-1, read-out: IC50 SKLU-1
[8] = system: U251 (glioblastoma); test: SRB cytotoxicity, U251 glioblastoma cells; format: cell-based, human; conditions: Homo sapiens, U-251, read-out: IC50 U251
[9] = system: HCT-15 (colon); test: SRB cytotoxicity, HCT-15 colon cells; format: cell-based, human; conditions: Homo sapiens, HCT-15, read-out: IC50 HCT-15
[10] = system: K562 (leukemia); test: SRB cytotoxicity, K562 leukemia cells; format: cell-based, human; conditions: Homo sapiens, K562, read-out: IC50 K562

Compound: C=C(C)[C@@H]1CC[C@]2(C)CC[C@]3(C)[C@H](CC[C@@H]4[C@@]5(C)CC[C@H](O)C(C)(C)[C@@H]5CC[C@]43C)[C@@H]12 [lupeol (5), lupeol]
- inhibition at 50 μM [1]: 13%
- inhibition at 50 μM [2]: 27.3%
- inhibition at 50 μM [3]: 10.4%
- inhibition at 50 μM [4]: 48.8%
- inhibition at 50 μM [5]: 22.3%
- inhibition at 50 μM [6]: 50.7%

Compound: COc1cc([C@@H]2c3cc4c(cc3[C@@H](O[C@@H]3O[C@@H]5CO[C@@H](C)O[C@H]5[C@H](O)[C@H]3O)[C@H]3COC(=O)[C@H]23)OCO4)cc(OC)c1O [etoposide, reference compound]
- IC50 [7]: 2600 ± 300 nM
- IC50 [8]: 2400 ± 200 nM
- IC50 [9]: 4800 ± 500 nM
- IC50 [10]: 2200 ± 700 nM

Compound: CC(C)=CCC[C@@H](C)[C@@H]1CC[C@]2(C)C3=C(CC[C@@]12C)[C@@]1(C)CC[C@H](O)C(C)(C)[C@@H]1CC3 [euphol (2), eupha-8,24-dien-3β-ol]
- inhibition at 50 μM [1]: 4.9%
- inhibition at 50 μM [3]: 2.18%
- inhibition at 50 μM [4]: 26.9%
- inhibition at 50 μM [5]: 36.6%
